# Test results as given in patent US20240366809A1, “INHIBITOR OF PROSTATE SPECIFIC MEMBRANE ANTIGEN AND PHARMACEUTICAL USE THEREOF” (TIANJIN HENGRUI MEDICINE CO., LTD., priority 2021, published 2024).
# Where “and” joins values, the source holds several entries; their conditions need not be identical. Equal entries are not always repeated.
# Legend:
# [1] = molecular target: T1, rhPSMA (Homo sapiens (Human), UniProt Q04609); test: Tests for inhibitory activity against PSMA (Test Example 1); type: biochemical; conditions: rhPSMA 50 ng/well, substrate N-Acetyl-Asp-Glu, 37° C. 1 h
# T1 sequence (Q04609 44-750): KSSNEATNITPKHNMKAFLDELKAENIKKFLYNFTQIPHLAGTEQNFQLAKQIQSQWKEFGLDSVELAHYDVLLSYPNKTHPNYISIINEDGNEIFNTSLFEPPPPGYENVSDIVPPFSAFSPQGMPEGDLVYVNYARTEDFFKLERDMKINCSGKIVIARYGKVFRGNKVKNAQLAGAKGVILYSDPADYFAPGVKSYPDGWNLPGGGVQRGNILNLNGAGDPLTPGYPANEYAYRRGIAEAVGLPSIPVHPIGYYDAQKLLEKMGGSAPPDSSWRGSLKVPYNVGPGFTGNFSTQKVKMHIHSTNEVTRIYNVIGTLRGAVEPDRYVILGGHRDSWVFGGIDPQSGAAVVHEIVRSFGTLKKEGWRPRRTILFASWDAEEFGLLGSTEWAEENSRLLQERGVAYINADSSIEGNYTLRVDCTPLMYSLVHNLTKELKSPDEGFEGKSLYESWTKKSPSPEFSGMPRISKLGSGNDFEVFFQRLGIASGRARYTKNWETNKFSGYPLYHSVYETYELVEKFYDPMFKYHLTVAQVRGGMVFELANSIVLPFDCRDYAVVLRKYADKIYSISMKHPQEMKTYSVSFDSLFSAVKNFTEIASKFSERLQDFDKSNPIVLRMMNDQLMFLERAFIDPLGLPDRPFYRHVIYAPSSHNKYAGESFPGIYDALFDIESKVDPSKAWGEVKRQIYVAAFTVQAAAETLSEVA
# Procedure: • 1. Multifunctional microplate reader (SPARK, TECAN) • 2. rhPSMA (R&D, 4234-ZN) • 3. N-Acetyl-Asp-Glu (Sigma, A5930) • 4. OPA (Sigma, P0657)
# PSMA inhibitors can bind to the enzyme PSMA to prevent the enzyme PSMA from decomposing the substrate N-Acetyl-Asp-Glu. In this experiment, the extent to which the substrate was decomposed and the resulting ultraviolet absorption changes were measured to evaluate the capacities of the PSMA inhibitors to bind to the enzyme PSMA, and the activity of the compounds was evaluated with IC50 values.
# (§1) Buffer 1 (50 mM HEPES, 0.1 M NaCl, pH 7.5) was used to prepare a 0.4 μg/mL rhPSMA solution and a 40 μM solution of the substrate N-Acetyl-Asp-Glu. rhPSMA was mixed with the small molecules to be tested in a 96-well plate, with a constant rhPSMA content of 50 ng/well maintained. Meanwhile, the small molecules were step-wise diluted to final concentrations of 1 μM, 100 nM, 33.3 nM, 11.1 nM, 3.7 nM, 1.2 nM, 0.41 nM, 0.137 nM, 0.045 nM, and 0 nM. In addition, a positive control was set up using PSMA-617. The rhPSMA-small molecules were taken at 40 μL/well and well mixed with the 40 μM solution of the substrate N-Acetyl-Asp-Glu (40 μL/well). The mixtures were incubated at 37° C. in the dark for 1 h, were heated at 70° C. for 5 min to quench the reactions, and were cooled to room temperature. Buffer 2 (0.2 M NaOH, 0.1% beta-Mercaptoethanol) was used to prepare a 15 mM OPA solution. The OPA solution was added to the reaction systems at 80 μL/well and well mixed, and then the plate was incubated at room temperature for 10 min. The mixtures were taken at 100 μL/well and added to a 96-well Flat Black. With the excitation wavelength set to 330 nm and the emission wavelength to 465 nm, the intensity of signals was measured. IC50 values were obtained from dose-response curves.
# The capacities of the compounds of the present disclosure to bind to the enzyme GCPII can be measured through the assay described above.
# [2] = molecular target: T1, rhPSMA; test: Affinity assays using enzyme activity method (Test Example 2); type: biochemical; conditions: for Ratio to PSMA-617: ratio of IC50 values; for IC50: rhPSMA 50 ng/well, substrate N-Acetyl-Asp-Glu, 37° C. 1 h
# Procedure: as §1
# [3] = tested on: LnCaP tumor; test: Biodistribution of 68Ga-labeled compounds in LnCaP tumor-bearing mice; type: in vivo
# Procedure: After single tail-vein injections into mice, the in-vivo distributions of ^68Ga-labeled compound v (Example 9) and compound x (Example 11) in the positive LnCaP tumor-bearing mice were observed.
# At 2 h after the injection, a total of 3 animals were sacrificed by cervical dislocation, and tissue samples were collected, including samples of the blood, the heart, the lungs, the liver, the spleen, the kidneys, the stomach, the intestine, the bones, the flesh, the brain, the salivary gland, the large intestine, the pancreas, and the tumor. The net weight of the tissues was measured first, and the radioactivity counts of the collected tissues were then measured using a γ-counter. The distributions of the labeled compounds in the different tissues and organs of the mice were measured. Meanwhile, a test sample was accurately diluted 100-fold, and 0.1 mL of the dilution was added to a counting tube and used as standard 1% ID (i.e., one percent of the injected dose). The radioactivity counts of the 1% ID standard and the biological samples were measured simultaneously on a γ-counter. The biodistribution data were expressed as the percentage of the radioactivity counts per gram of tissue or organ to the total injected dose (radioactivity counts) (% ID/g).
# [4] = Pharmacokinetics in blood of normal mice after single tail-vein injection; type: in vivo; conditions: for Blood % ID/g: normal mice, individual animals 1-4
# Procedure: Through single tail-vein injections into mice, the pharmacokinetics of ^68Ga-v (Example 9) and PSMA-617 in blood was studied.
# Each mouse was dosed at 50 μCi/100 μL, and blood samples were taken from the orbit 0.083, 0.25, 0.5, 1, 2, and 4 h post-dose (4 animals per time point). The blood samples were collected in pre-weighed sample tubes. The tubes were weighed and the weight of the blood samples was recorded. Then radioactivity counting was performed using a γ-counter. Meanwhile, a test sample was accurately diluted 100-fold, and 0.1 mL of the dilution was added to a counting tube and used as standard 1% ID (i.e., one percent of the injected dose). The radioactivity counts of the 1% ID standard and the biological samples were measured simultaneously on a γ-counter. The data on blood were expressed as the percentage of the radioactivity counts per gram of blood to the total injected dose (radioactivity counts) (% ID/g). Pharmacokinetic parameters were calculated from blood drug concentration data.
# [5] = tested on: human organs; test: Absorbed doses of radiation, estimates for human organs (OLINDA software)
# Procedure: The AUC of drug metabolisms was calculated from the biodistribution (Bio-D) data and imported into the OLINDA software to generate doses of radiation absorbed by all the organs.
# [6] = 2 h after injection, LnCaP tumor-bearing mice
smiles,measurement,setting,value
NCc1cnn([C@@H](Cc2ccccc2)C(=O)NCCCC[C@H](NC(=O)N[C@@H](CCC(=O)O)C(=O)O)C(=O)O)c1,IC50,[1],143 nM
N[C@@H](Cc1ccncc1)C(=O)NCCCC[C@H](NC(=O)N[C@@H](CCC(=O)O)C(=O)O)C(=O)O,IC50,[1],178 nM
NCc1ccc(C(=O)Nc2cccc(C(=O)NCCCC[C@H](NC(=O)N[C@@H](CCC(=O)O)C(=O)O)C(=O)O)n2)cc1,IC50,[1],2.42 nM
O=C(O)CC[C@H](NC(=O)N[C@@H](CCCCNC(=O)[C@H](Cc1ccc2ccccc2c1)NC(=O)C1CC12CCNCC2)C(=O)O)C(=O)O (some centres unmarked),IC50,[1],2.4 nM
O=C(O)CC[C@H](NC(=O)N[C@@H](CCCCNC(=O)[C@H](Cc1ccc2ccccc2c1)NC(=O)N1CCC(CNC(=O)CN2CCN(CC(=O)O)CCN(CC(=O)O)CCN(CC(=O)O)CC2)CC1)C(=O)O)C(=O)O,IC50,[1],4.13 nM
"O=C(O)CC[C@H](NC(=O)N[C@@H](CCCCNC(=O)[C@H](Cc1ccc2ccccc2c1)NC(=O)[C@H]1CC[C@@]2(CC1)CN(C(=O)CN1CCN(CC(=O)O)CCN(CC(=O)O)CCN(CC(=O)O)CC1)CCO2)C(=O)O)C(=O)O [Example 11, (((S)-1-carboxy-5-((S)-3-(2-naphthyl)-2-((6R,9s)-4-(2-(4,7,10-tris(carboxymethyl)-1,4,7,10-tetraazacyclododecanyl)acetyl)-1-oxa-4-azaspiro[5.5]undecane-9-carboxamido)propanamido)pentyl)carbamoyl)-L-glutamic acid]",Ratio to PSMA-617,[2],7.85
same,IC50,[2],13 nM
"O=C(O)CC[C@H](NC(=O)N[C@@H](CCCCNC(=O)[C@H](Cc1ccc2ccccc2c1)NC(=O)[C@H]1CC[C@H](CNC(=O)CN2CCN(CC(=O)O)CCN(CC(=O)O)CCN(CC(=O)O)CC2)CC1)C(=O)O)C(=O)O [PSMA-617, reference compound]",IC50,[1],2.36 nM
same,Ratio to PSMA-617,[2],1.00
same,IC50,[2],1.65 nM
O=C([O-])CN1CCN(CC(=O)[O-])CCN(CC(=O)N2CCO[C@]3(CC[C@H](C(=O)N[C@@H](Cc4ccc5ccccc5c4)C(=O)NCCCC[C@H](NC(=O)N[C@@H](CCC(=O)O)C(=O)O)C(=O)O)CC3)C2)CCN(CC(=O)[O-])CC1.[68Ga+3] [^68Ga-v],targeting effect on the LnCap tumor,[3]; [6],good targeting effect on the LnCap tumor
same,"tumor uptake, comparison in words",[3]; [6],better than ^68Ga-x (Example 11)'s
same,uptake values in the other tissues,"[3]; 2 h after injection, tissues other than tumor, kidneys, liver, lung, spleen",very low
same,uptake value in the LnCap tumor,"[3]; 2 h after single tail-vein injection, LnCaP tumor-bearing mice",~10 Id %/g
same,time estimated using 5 effective half-lives,[4]; 5 effective half-lives,2.27 h
same,Blood % ID/g,[4]; 0.083 h post-dose,5.89 % ID/g and 4.98 % ID/g and 5.26 % ID/g and 4.11 % ID/g
same,content of the radioactive substance in the blood,"[4]; 0.25 h after the injections, mean of n=4",1.25±0.22 % ID/g
same,Blood % ID/g,[4]; 0.25 h post-dose,1.33 % ID/g and 1.11 % ID/g and 1.52 % ID/g and 1.03 % ID/g
same,Blood % ID/g,[4]; 0.5 h post-dose,1.15 % ID/g and 0.52 % ID/g and 0.79 % ID/g and 0.99 % ID/g
same,Blood % ID/g,[4]; 1 h post-dose,0.33 % ID/g and 0.19 % ID/g (2×) and 0.16 % ID/g
same,Blood % ID/g,[4]; 2 h post-dose,0.07 % ID/g and 0.13 % ID/g and 0.10 % ID/g and 0.11 % ID/g
same,Blood % ID/g,[4]; 4 h post-dose,0.06 % ID/g and 0.02 % ID/g and 0.10 % ID/g and 0.08 % ID/g
same,effective half-life Te,[4]; according to calculations,27 min
same,elimination phase half-life,[4]; blood of mice,45.5 min
same,half-life in the blood,[4]; blood of normal mice,7.8 min
same,AUCINF_obs,"[4]; blood of normal mice, 0-4 h",1.66 ± 0.24 h* % ID/g
same,AUClast,"[4]; blood of normal mice, 0-4 h",1.67 ± 0.26 h* % ID/g
same,Cl_obs,"[4]; blood of normal mice, 0-4 h",12.17 ± 1.77 μCi/h* % ID/g
same,Cmax,"[4]; blood of normal mice, 0-4 h",5.06 ± 0.74 % ID/g
same,MRTlast,"[4]; blood of normal mice, 0-4 h",23.4 ± 1.2 min
same,Vz_obs,"[4]; blood of normal mice, 0-4 h",4.97 ± 1.09 μCi/% ID/g
same,t1/2,"[4]; blood of normal mice, 0-4 h",7.8 min
same,t1/2,"[4]; blood of normal mice, 0-4 h, listed as 68Ga-V",7.8 ± 2.4 min
same,time after dosing at which substantially metabolized,[4]; estimated as 5 times the half-life,3.9 h
same,"absorbed dose of radiation, comparison with the labeled PSMA-617 in words",[5]; from Table 5,half of that resulting from ^68Ga-PSMA-617
same,"radiation dose estimate, Adrenals",[5]; human organ: Adrenals,8.50E−03 mSv/MBq
same,"radiation dose estimate, Brain",[5]; human organ: Brain,3.99E−02 mSv/MBq
same,"radiation dose estimate, Esophagus",[5]; human organ: Esophagus,3.77E−03 mSv/MBq
same,"radiation dose estimate, Eyes",[5]; human organ: Eyes,1.84E−03 mSv/MBq
same,"radiation dose estimate, Gallbladder Wall",[5]; human organ: Gallbladder Wall,5.52E−03 mSv/MBq
same,"radiation dose estimate, Heart Wall",[5]; human organ: Heart Wall,1.62E−02 mSv/MBq
same,"radiation dose estimate, Kidneys",[5]; human organ: Kidneys,3.54E−02 mSv/MBq
same,"radiation dose estimate, Left colon",[5]; human organ: Left colon,6.87E−03 mSv/MBq
same,"radiation dose estimate, Liver",[5]; human organ: Liver,2.50E−02 mSv/MBq
same,"radiation dose estimate, Lungs",[5]; human organ: Lungs,1.05E−02 mSv/MBq
same,"radiation dose estimate, Osteogenic Cells",[5]; human organ: Osteogenic Cells,4.65E−03 mSv/MBq
same,"radiation dose estimate, Pancreas",[5]; human organ: Pancreas,9.51E−03 mSv/MBq
same,"radiation dose estimate, Prostate",[5]; human organ: Prostate,3.77E−03 mSv/MBq
same,"radiation dose estimate, Rectum",[5]; human organ: Rectum,1.99E−01 mSv/MBq
same,"radiation dose estimate, Red Marrow",[5]; human organ: Red Marrow,2.12E−03 mSv/MBq
same,"radiation dose estimate, Right colon",[5]; human organ: Right colon,3.43E−03 mSv/MBq
same,"radiation dose estimate, Salivary Glands",[5]; human organ: Salivary Glands,1.81E−03 mSv/MBq
same,"radiation dose estimate, Small Intestine",[5]; human organ: Small Intestine,1.31E−01 mSv/MBq
same,"radiation dose estimate, Spleen",[5]; human organ: Spleen,5.13E−02 mSv/MBq
same,"radiation dose estimate, Stomach Wall",[5]; human organ: Stomach Wall,8.54E−02 mSv/MBq
same,"radiation dose estimate, Testes",[5]; human organ: Testes,3.51E−04 mSv/MBq
same,"radiation dose estimate, Thymus",[5]; human organ: Thymus,1.99E−03 mSv/MBq
same,"radiation dose estimate, Thyroid",[5]; human organ: Thyroid,9.11E−04 mSv/MBq
same,"radiation dose estimate, Urinary Bladder Wall",[5]; human organ: Urinary Bladder Wall,2.27E−03 mSv/MBq
same,"radiation dose estimate, Effective Dose",[5]; human: Effective Dose,2.10E−02 mSv/MBq
same,"radiation dose estimate, Total Body",[5]; human: Total Body,0.496E−02 mSv/MBq
O=C(O)CC[C@H](NC(=O)N[C@@H](CCCCNC(=O)[C@H](Cc1ccc2ccccc2c1)NC(=O)[C@H]1CC[C@@]2(CC1)CN(C(=O)CN1CCN(CC(=O)O)CCN(CC(=O)O)CCN(CC(=O)O)CC1)CCO2)C(=O)O)C(=O)O [drawing 156],IC50,[1],1.52 nM
